Drawing on patent US20210284647A1, “N-(3-(IMIDAZO[1,2-B]PYRIDAZIN-3-YLETHYNYL)-4-METHYLPHENYL)-5-PHENYL-4,5-DIHYDRO-1H-PYRAZOLE-1-CARBOXAMIDE DERIVATIVE, AND PHARMACEUTICAL COMPOSITION CONTAINING SAME AS ACTIVE INGREDIENT FOR TREATING KINASE-RELATED DISEASES” (VORONOIBIO INC., priority 2018, published 2021), this text covers EC50 and IC50 for nine molecules.

Assay [1] relates to human Jurkat T cells deficient in FADD. Description: Cell protection effect under apoptosis-inducing condition (TNF-α). The assay is classed as cell-based. The note with it: 40 ng of TNF-α, 50 hours, CellTiter-Glo, read-out: I2.I Cell EC50. The essentials:
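FADD-deficient Jurkat cells (10,000/well) were cultured for 24 h, then exposed to TNF-α (40 ng) plus compound in a 3-fold series from 1 µM top (0.05% DMSO) for 50 h. Viability was read by CellTiter-Glo luminescence. EC50 is the concentration giving 50% inhibition of apoptosis relative to solvent control.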

The target in assay [2] is T1, human GST-RIPK1 (Homo sapiens, UniProt Q13546).
T1 construct: GST; purchased signalchem
T1 sequence (Q13546 1-375 limits assumed): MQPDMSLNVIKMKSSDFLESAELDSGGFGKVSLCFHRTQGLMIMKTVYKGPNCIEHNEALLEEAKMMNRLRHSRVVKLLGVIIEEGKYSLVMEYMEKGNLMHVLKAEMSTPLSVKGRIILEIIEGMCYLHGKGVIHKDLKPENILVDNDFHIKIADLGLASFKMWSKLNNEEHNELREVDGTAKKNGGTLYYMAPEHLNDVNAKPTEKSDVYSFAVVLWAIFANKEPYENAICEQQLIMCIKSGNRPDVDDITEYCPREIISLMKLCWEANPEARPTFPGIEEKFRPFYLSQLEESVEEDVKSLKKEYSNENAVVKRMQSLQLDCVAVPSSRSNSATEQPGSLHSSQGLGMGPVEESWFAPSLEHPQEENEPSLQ
Description: RIPK1 inhibitory activity (ADP-Glo kinase assay). The assay is classed as biochemical. The note with it: human GST-RIPK1 10 ng, ATP 50 uM, 25° C. for 4 hours, read-out: Enzyme IC50. Summed up:
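Purified human GST-RIPK1 (10 ng) was reacted with 50 uM ATP and substrate in Tris-HCl pH 7.4, MgCl2, BSA, DTT buffer for 4 h at 25 °C. ADP formed was read by ADP-Glo luminescence. IC50 is relative to solvent control, from three data sets.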
In general terms: ADP-Glo first removes unused ATP, then detects ADP through luciferase.

pEC50, pIC50: −log10 of the molar value. Counter-ions that a name gives are not always drawn.

As to `COC(=O)Nc1cccn2c(C#Cc3cccc(NC(=O)N4N=CCC4c4ccccc4)c3)cnc12` (stereo not drawn) [Example 64, methyl (3-((3-(5-phenyl-4,5-dihydro-1H-pyrazole-1-carboxamido)phenyl)ethynyl)imidazo[1,2-a]pyridin-8-yl)carbamate], in assay [1], the pEC50 – broadly, the negative decadic logarithm of the EC50, by convention in mol/L – is 8.96. The pIC50 (in general, −log10 of the IC50, conventionally taken in molar units) in assay [2] is 6.92.

As for `Cn1ccc(Nc2cccn3c(C#Cc4cccc(NC(=O)N5N=CCC5c5ccccc5)c4)cnc23)n1` (stereo not drawn) [Example 68, N-(3-((8-((1-methyl-1H-pyrazol-3-yl)amino)imidazo[1,2-a]pyridin-3-yl)ethynyl)phenyl)-5-phenyl-4,5-dihydro-1H-pyrazole-1-carboxamide 2,2,2-trifluoroacetate], in assay [1], the pEC50 was 9.92. The pIC50 in assay [2] is 7.41.

Consider `O=C(Nc1cccc(C#Cc2cnc3cccnn23)c1)N1N=CCC1c1ccncc1` (stereo not drawn) [Example 38, N-(3-(imidazo[1,2-b]pyridazin-3-ylethynyl)phenyl)-5-(pyridin-4-yl)-4,5-dihydro-1H-pyrazole-1-carboxamide hydrochloride], for which the pEC50 in assay [1] was 6.97. In assay [2], the pIC50 is 8.96.

`O=C(Nc1cccc(C#Cc2cnc3cccnn23)c1)N1N=CCC1C1CCCCC1` (stereo not drawn) [Example 42, 5-cyclohexyl-N-(3-(imidazo[1,2-b]pyridazin-3-ylethynyl)phenyl)-4,5-dihydro-1H-pyrazole-1-carboxamide]: the pEC50 in assay [1] was 8.82. Moreover, in assay [2], the pIC50 was 7.90.

For the molecule `Cc1ccc(NC(=O)N2N=CCC2c2cc(F)cc(F)c2)cc1C#Cc1cnc2cccnn12` (stereo not drawn) [Example 4, 5-(3,5-difluorophenyl)-N-(3-(imidazo[1,2-b]pyridazin-3-ylethynyl)-4-methylphenyl)-4,5-dihydro-1H-pyrazole-1-carboxamide 2,2,2-trifluoroacetate], the pEC50 in assay [1] is 8.77. Further, the pIC50 in assay [2] was 8.11.

For the molecule `O=C(Nc1cccc(C#Cc2cnc3cccnn23)c1)N1N=CCC1c1cc(F)cc(F)c1` (stereo not drawn) [Example 23, 5-(3,5-difluorophenyl)-N-(3-(imidazo[1,2-b]pyridazin-3-ylethynyl)phenyl)-4,5-dihydro-1H-pyrazole-1-carboxamide 2,2,2-trifluoroacetate], in assay [1], the pEC50 was 8.92. Moreover, the pIC50 in assay [2] is 7.49.

Take `O=C(Nc1ccc(C#Cc2cnc3cccnn23)cc1)N1N=CCC1c1ccccc1` (stereo not drawn) [Example 22, N-(4-(imidazo[1,2-b]pyridazin-3-ylethynyl)phenyl)-5-phenyl-4,5-dihydro-1H-pyrazole-1-carboxamide 2,2,2-trifluoroacetate]: the pEC50 in assay [1] is under 6.00. Also, the pIC50 in assay [2] was under 6.00.

For the molecule `Cc1ccc(NC(=O)N2N=CCC2c2ccc(Cl)cc2)cc1C#Cc1cnc2cccnn12` (stereo not drawn) [Example 15, 5-(4-chlorophenyl)-N-(3-(imidazo[1,2-b]pyridazin-3-ylethynyl)-4-methylphenyl)-4,5-dihydro-1H-pyrazole-1-carboxamide 2,2,2-trifluoroacetate], in assay [1], the pEC50 is 10.00. The pIC50 in assay [2] was 8.37.

Consider `CS(=O)(=O)c1ccc(Nc2cccn3c(C#Cc4cccc(NC(=O)N5N=CCC5c5ccccc5)c4)cnc23)cc1` (stereo not drawn) [Example 65, N-(3-((8-((4-(methylsulfonyl)phenyl)amino)imidazo[1,2-a]pyridin-3-yl)ethynyl)phenyl)-5-phenyl-4,5-dihydro-1H-pyrazole-1-carboxamide 2,2,2-trifluoroacetate], for which, in assay [1], the pEC50 is 9.70. In addition, the pIC50 in assay [2] is 7.29.
